The subject of experiment [1] is 2-phenyl-1,4-benzoquinone-induced writhing. The experiment is described as follows: 2-phenyl-1,4-benzoquinone-induced writhing test in mice (analgesic activity, PQW). In kind it is in vivo. Particulars: for Analgesic PQW, % decrease (phenylquinone writhing): 20 mg/kg, SC. (Writhing tests count abdominal constrictions after an irritant is injected.)
The test system of experiment [2] is spontaneous hypertensive rat. The experiment is described as follows: Antihypertensive activity in the spontaneous hypertensive rat (SHR), indirect tail cuff method. The class given is in vivo. The conditions noted are these: 50 mg/kg, PO, treated orally for three days, drop measured on third day. As to the method: The 6H-isoxazolo[5,4-d]pyrazolo[…] of formula I of the present invention are useful as antihypertensive agents due to their ability to depress blood pressure in mammals. Antihypertensive activity is measured in the spontaneous hypertensive rat by the indirect tail cuff method described in "Methods in Pharmacology", A. Schwartz, Ed., Vol. I, Appleton-Century Crofts, New York, N.Y., 1971, p. 135. In this procedure a group of five animals are treated orally for three days with the test compound in relation to a control group of the same number. The drop in blood pressure is measured on the third day following administration. The antihypertensive activities of some of the compounds, expressed as a decrease in mean arterial blood pressure (in mmHg), are given in Table I.

Consider “6-Ethyl-3-tolyl-6H-isoxazolo[5,4-d]pyrazolo[3,4-b]pyridine”, for which the “Analgesic PQW, % decrease (phenylquinone writhing)” value (“Analgesic PQW, % decrease” for short) in experiment [1] came to 48%. Consider `CCn1ncc2c3onc(-c4ccc(Cl)cc4)c3cnc21` [3-(4-Chlorophenyl)-6-ethyl-6H-isoxazolo[5,4-d]pyrazolo[3,4-b]pyridine], for which, in experiment [2], the “Antihypertensive SHR (decrease in mean arterial blood pressure)” value is given as 62 mmHg.

With `CCn1ncc2c3onc(-c4ccccn4)c3cnc21` [6-Ethyl-3-(2-pyridyl)-6H-isoxazolo[5,4-d]pyrazolo[3,4-b]pyridine], the “Analgesic PQW, % decrease” value in experiment [1] is 42%. Still for that read-out and setting: the figure for `CCn1ncc2c3onc(-c4cccc(F)c4)c3cnc21` [6-Ethyl-3-(3-fluorophenyl)-6H-isoxazolo[5,4-d]pyrazolo[3,4-b]pyridine] is 55%; for `CCn1ncc2c3onc(-c4cccc(O)c4)c3cnc21` [6-Ethyl-3-(3-hydroxyphenyl)-6H-isoxazolo[5,4-d]pyrazolo[3,4-b]pyridine] it is 48%. `CCn1ncc2c3onc(-c4cccc(C)c4)c3cnc21` [6-Ethyl-3-(3-tolyl)-6H-isoxazolo[5,4-d]pyrazolo[3,4-b]pyridine]: in experiment [2], the “Antihypertensive SHR (decrease in mean arterial blood pressure)” value is listed as 33 mmHg.

As for `CCn1ncc2c3onc(-c4ccc(F)cc4)c3cnc21` [6-Ethyl-3-(4-fluorophenyl)-6H-isoxazolo[5,4-d]pyrazolo[3,4-b]pyridine], the “Analgesic PQW, % decrease” value in experiment [1] came to 31%. Take `CCn1ncc2c3onc(-c4ccc(OC)cc4)c3cnc21` [6-Ethyl-3-(4-methoxyphenyl)-6H-isoxazolo[5,4-d]pyrazolo[3,4-b]pyridine]: the “Antihypertensive SHR (decrease in mean arterial blood pressure)” value in experiment [2] came out at 31 mmHg. With `CCC(=O)O[C@](Cc1ccccc1)(c1ccccc1)[C@H](C)CN(C)C` [Propoxyphene, reference compound], the ED50 (usually the dose that gives a 50% effect, or the effect in half of the subjects) in experiment [1] (Mus musculus, sc, prior art compound, read-out: ED50 (phenylquinone writhing)) amounted to 3.9 mg/kg. Consider `C[C@](N)(Cc1ccc(O)c(O)c1)C(=O)O` [alpha-Methyldopa, reference compound], for which the “Antihypertensive SHR (decrease in mean arterial blood pressure)” value in experiment [2] stood at 40 mmHg.

The values are drawn from patent publication US4658029A, “1-Hpyrazolo[3,4-b]pyridines” (Hoechst-Roussel Pharmaceuticals Inc., priority 1986, dated 1987).
